In one assay the test system is normal dogs. As to the kind of experiment: Gastric emptying in normal dogs. In kind it is in vivo, beagle dogs. As to conditions: relative to vehicle. As for the experimental part:
A gastric cannula was surgically implanted into female beagle dogs (10-15 kg) under general anesthesia and allowed to recover for at least 2 weeks. Dogs were fasted for 24 hours after which water was freely available. The gastric cannula was opened and gastric juice and food remnants were removed with 40-50 ml of lukewarm water. Groups of six dogs were dosed subcutaneously with lidamidine, an alpha2 agonist (0.63 mg/kg), 60 minutes before the meal, a positive control for delay of gastric emptying. […] Five minutes before the meal, the gastric cannula was opened to determine the amount of fluid present in stomach for baseline value and fluid was promptly reintroduced. Then a test meal consisting of 250 ml of a glucose solution (5 g/1) was administered via the cannula and allowed to remain in the stomach for 30 minutes. Gastric contents were drained from the stomach to measure total volume after 30 minutes. […] Glucose concentrations were evaluated for collected samples and used to determine the absolute amount of glucose remaining in the stomach at each time point. The percentage of glucose retained in the stomach was determined from the starting value and the concentration of glucose at each time point and plotted as a function of time. The time at which 50% of the gastric contents were retained was determined by fitting of the curves to a single exponential.

The next assay relates to db/db mice. As to the kind of experiment: Blood glucose after intravenous dosing in db/db mice. In kind it is in vivo. As to conditions: 0.5-4 hours post-dosing. The method, then: Blood glucose was monitored 0.5, 1, 2, 3, and 4 hours post-dosing.
For the next assay, the system named is RINm cells. As to the kind of experiment: Insulin secretion in RINm cells. The format is cell-based. As to conditions: peptides 0-5 nM, mimetibodies 5 or 50 nM, ELISA. The method, then:
GLP-1 MMB causes insulin secretion in RINm cells. To test the effect of GLP-1 MMB in insulin secretion, RINm cells were treated with increasing concentrations of GLP-1 (7-36) peptide (0-5 nM), exendin-4 peptide (0-5 nM), or various GLP-1 mimetibodies (5 or 50 nM) and the amount of insulin secreted was measured via ELISA. All GLP-1 MMBs tested had activities in stimulating insulin secretion in RINm cells (FIG. 6).
In general terms: An ELISA detects its analyte on a solid surface through an enzyme-linked reagent.

Assay [1] deals with T1, GLP-1 receptor (Mus musculus, UniProt O35659).
T1 construct: Male GLP-1R−/− and age matched wild type mice; from tissue; host or cells: whole animal (wild type mice; GLP-1R-/- mice as receptor-free control)
T1 sequence (O35659 22-463): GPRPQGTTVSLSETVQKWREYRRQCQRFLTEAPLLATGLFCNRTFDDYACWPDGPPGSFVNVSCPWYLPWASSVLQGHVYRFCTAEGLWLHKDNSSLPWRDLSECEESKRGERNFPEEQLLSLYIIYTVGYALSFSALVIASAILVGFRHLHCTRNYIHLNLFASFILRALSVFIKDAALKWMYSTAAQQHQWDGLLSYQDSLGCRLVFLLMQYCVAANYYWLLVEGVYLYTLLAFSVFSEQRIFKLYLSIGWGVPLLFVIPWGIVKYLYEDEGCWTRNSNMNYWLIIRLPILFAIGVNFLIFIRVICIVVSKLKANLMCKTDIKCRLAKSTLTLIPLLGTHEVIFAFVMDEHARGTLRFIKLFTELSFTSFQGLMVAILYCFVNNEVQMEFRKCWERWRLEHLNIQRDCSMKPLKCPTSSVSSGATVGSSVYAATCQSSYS
As to the kind of experiment: Glucose tolerance test (ipGTT) in GLP-1R−/− and wild type mice. The format is in vivo. To be noted: wild type mice, single iv, GLP-1 MMB 1 mg/kg, exendin-4 0.07 mg/kg. The method, then:
(§1) Materials/Methods: Animals: Male GLP-1R−/− and age matched wild type mice were randomized into three treatment groups (n=5) based on body weight and fasting blood glucose.
Glucose tolerance test (ipGTT): Mice were fasted overnight and dosed intravenously as discussed above. Fasting glucose was measured via tail snips using a hand-held glucometer (LifeScan). At t=0 min, mice were dosed i.p. with D-glucose (1.0 mg/g, Sigma) and blood glucose was measured after 15, 30, 60, 90 and 120 min using tail vein blood

For assay [2], the system named is GLP-1 receptor. In words: Food intake in GLP-1R−/− and wild type mice. In kind it is in vivo. To be noted: GLP-1R−/− mice, single iv, GLP-1 MMB 1 mg/kg, exendin-4 0.07 mg/kg.
Source text: as §1

Assay [3] concerns the target T1, GLP-1 receptor. In words: Food intake in GLP-1R−/− and wild type mice. As to conditions: wild type mice, single iv, GLP-1 MMB 1 mg/kg, exendin-4 0.07 mg/kg. In kind it is in vivo.
Source text: as §1

In assay [4] the test system is GLP-1 receptor. In words: Gastric emptying in GLP-1R−/− and wild type mice. To be noted: GLP-1R−/− mice, single iv, GLP-1 MMB 1 mg/kg, exendin-4 0.07 mg/kg. In kind it is in vivo. The method, then: as §1
(§2) Gastric Emptying: Mice were fasted overnight. The next morning mice were re-fed for 1 h, food intake was recorded and the mice were deprived of food for the rest of the study. Mice were dosed intravenously as discussed above. Two hours post-dosing mice were euthenized.
(§3) The stomach was exposed by laparotomy, ligated at both the pylorus and cardia and removed.
(§4) The stomach content wet weight was measured. Equation 1 was used to calculate the percent of food remaining in the stomach. (Stomach Content Wet Weight (g)/Food Intake (g))*100 Equation (1)

Assay [5] deals with T1, GLP-1 receptor. As to the kind of experiment: Gastric emptying in GLP-1R−/− and wild type mice. As to conditions: wild type mice, single iv, GLP-1 MMB 1 mg/kg, exendin-4 0.07 mg/kg. In kind it is in vivo. As for the experimental part:
as §1, §2, §3, §4

Where no end group is shown, it is not given here.

With `CN=C(N)NC(=O)Nc1c(C)cccc1C` [lidamidine], the gastric emptying result with normal dogs was “significant delay in gastric emptying”.

Regarding `CC[C@H](C)[C@H](NC(=O)[C@H](Cc1ccccc1)NC(=O)[C@H](CCC(=O)O)NC(=O)[C@H](CCCCN)NC(=O)[C@H](C)NC(=O)[C@H](C)NC(=O)[C@H](CCC(N)=O)NC(=O)CNC(=O)[C@H](CCC(=O)O)NC(=O)[C@H](CC(C)C)NC(=O)[C@H](Cc1ccc(O)cc1)NC(=O)[C@H](CO)NC(=O)[C@H](CO)NC(=O)[C@@H](NC(=O)[C@H](CC(=O)O)NC(=O)[C@H](CO)NC(=O)[C@@H](NC(=O)[C@H](Cc1ccccc1)NC(=O)[C@@H](NC(=O)CNC(=O)[C@H](CCC(=O)O)NC(=O)[C@H](C)NC(=O)[C@@H](N)Cc1c[nH]cn1)[C@@H](C)O)[C@@H](C)O)C(C)C)C(=O)N[C@@H](C)C(=O)N[C@@H](Cc1c[nH]c2ccccc12)C(=O)N[C@@H](CC(C)C)C(=O)N[C@H](C(=O)N[C@@H](CCCCN)C(=O)NCC(=O)N[C@@H](CCCNC(=N)N)C(N)=O)C(C)C` [GLP-1 peptide], in the assay on db/db mice, the blood glucose result is on record as “lowered blood glucose at 30 minutes”.

Turning to “GLP-1 (7-36) peptide: wide-type GLP-1 (7-36) peptide (HAEGTFTSDVSSYLEGQAAKEFIAWLVKGR; ends and bridges not checked; UniProt P01275 98-127, looked up)”, in the assay with RINm cells, the “insulin secretion in RINm cells” value is on record as “stimulates insulin release”.

In the case of exendin-4 [reference compound], in the assay on RINm cells, the “insulin secretion in RINm cells” value was “stimulates insulin release”. Besides, the “AUC of ipGTT” value on GLP-1 receptor [1] is recorded as “statistically significant reduction”. The food intake entry in the assay with GLP-1 receptor [2] is given as “no effect”. In addition, at GLP-1 receptor [3], the “24 hour cumulative food intake compared to CNTO1996” value was “statistically significant reduction”. Also, the gastric emptying entry in the assay on GLP-1 receptor [4] was “no effect”. In addition, on GLP-1 receptor [5], the “stomach content (percent of food remaining) 2 h after dosing compared to CNTO1996” value is recorded as “statistically significant increase”.

For the origin of these results see US8071103B2, “Pharmaceutical composition comprising a human GLP-1 mimetibody” (Centocor, Inc., priority 2006, dated 2011).
